Publication PMC11594329, “Development of LAT1-Selective Nuclear Medicine Therapeutics Using Astatine-211” (International Journal of Molecular Sciences, 2024)
“Also recorded” adds a separate entry of the source.

Legend:
PANC-1 cells = assay: Uptake in PANC-1 cell line; type: cell-based; conditions: for Uptake of optical isomers: %ID/mg protein
Protocol: Each cell line was seeded in 24 wells at 1 × 10^5 cells/mL and allowed to become sub-confluent on the day of the experiment. Cells were washed with PBS (-) (Fujifilm Wako Pure Chemical, Osaka, Japan) prior to the addition of the compound, which was then replaced with uptake buffer. After treating the cells with the same dose, they were collected at predetermined time points. The cell dose was measured using a γ-counter (Wizard^2 2480; PerkinElmer, Waltham, MA, USA), and the protein content of the sample was determined. Protein content was measured using the BCA method, and the dose was corrected using the protein content (Protein Assay BCA kit, Fujifilm Wako Pure Chemical).
Figure 2 Comparison of uptake between the labeled compounds. (A) Relation between uptake ratio and LAT1 expression level. Uptake ratios were compared between LAT1-Tet/HEK293 cells. The Y-axis represents the uptake ratio, and the X-axis is concentration of Doxycycline (Dox) (TaKaRa Bio, Shiga, Japan). The collection time was 30 min after treatment. The expression of LAT1 increased with increasing amounts of Dox. (B) Comparison of uptake in PANC-1 cell line. The collection times were 0.5, 1, 5 and 10 min after treatment.
Figure 3 Comparison of intracellular uptake of […]-AAMT-O-Me L-isomer and ^211At-AAMT-O-Me D-isomer of ^211At-AAMT-O-Me. (A) Uptake in Mock/HEK293, LAT1/HEK293, and […] lines. (B) Uptake in PANC-1 cells. The y-axis represents %ID/mg protein. BCH: -Amino-2-norbornanecarboxylic acid. BCH was treated at 20 mM. ** p < 0.01, *** p < 0.001.
The PANC-1 cell line was obtained from the RIKEN Cell Bank and maintained in RPMI 1640 medium (Fujifilm Wako Pure Chemical, Osaka, Japan) supplemented with 10% inactivated fetal bovine serum (Thermo Fisher Scientific, Waltham, MA, USA). Mock/HEK293, LAT1/HEK293, and LAT2/HEK203 cells were kindly provided by Dr. Kanai. Cell lines controlling LAT1 expression were constructed using the Tet-on system. […]

[1] = Tissue distribution in ICR mice (normal animals); type: in vivo
From the text: ICR mice (male, 5 weeks old) were purchased from Japan SLC (Shizuoka, Japan) and acclimated for one week prior to use. The doses in the distribution experiments were as follows: ^211At-AAMT-O-Me-L (0.407 ± 0.005 MBq/mouse, 31.64 ± 0.76 g, n = 6), ^211At-AAMT-O-Me-D (0.351 ± 0.004 MBq/mouse, 31.44 ± 0.94 g, n = 6), ^211At-AAMT-O-Et-L (0.685 ± 0.010 MBq/mouse, 24.14 ± 3.31 g, n = 6), ^211At-AAMT-O-Pr-L (1.09 ± 0.06 MBq/mouse, 26.33 ± 0.39 g, n = 6)

SMILES	Uptake of optical isomers (PANC-1 cells)	Tissue distribution, Bladder ([1]; 1 h after injection)	Tissue distribution, Blood ([1]; 1 h after injection)	Tissue distribution, Bone ([1]; 1 h after injection)	Tissue distribution, Brain ([1]; 1 h after injection)	Tissue distribution, Cecum ([1]; 1 h after injection)	Tissue distribution, Colon ([1]; 1 h after injection)	Tissue distribution, Heart ([1]; 1 h after injection)	Tissue distribution, Kidney ([1]; 1 h after injection)	Tissue distribution, Liver ([1]; 1 h after injection)	Tissue distribution, Lung ([1]; 1 h after injection)	Tissue distribution, Pancreas ([1]; 1 h after injection)	Tissue distribution, Salivary glands ([1]; 1 h after injection)	Tissue distribution, Small intestine ([1]; 1 h after injection)	Tissue distribution, Spleen ([1]; 1 h after injection)	Tissue distribution, Stomach ([1]; 1 h after injection)	Tissue distribution, Testis ([1]; 1 h after injection)	Tissue distribution, Thymus ([1]; 1 h after injection)	Tissue distribution, Thyroid ([1]; 1 h after injection)	Tissue distribution, Bladder ([1]; 3 h after injection)	other results
COc1ccc(C[C@@](C)(N)C(=O)O)cc1[211At] [^211At-AAMT-O-Me-D]	taken up less	10.62 ± 8.22 %ID/g	1.90 ± 0.57 %ID/g	0.93 ± 0.35 %ID/g	0.15 ± 0.01 %ID/g	0.47 ± 0.19 %ID/g	2.54 ± 1.55 %ID/g	3.20 ± 1.26 %ID/g	1.48 ± 0.39 %ID/g	0.58 ± 0.11 %ID/g	2.84 ± 1.11 %ID/g	2.38 ± 1.36 %ID/g	4.67 ± 1.03 %ID/g	2.66 ± 1.23 %ID/g	2.92 ± 1.49 %ID/g	6.34 ± 2.74 %ID/g	1.84 ± 0.23 %ID/g	1.89 ± 0.90 %ID/g	8.06 ± 3.56 %ID/g	0.19 ± 0.11 %ID/g	Tissue distribution, Blood ([1]; 3 h after injection): 0.38 ± 0.16 %ID/g; Tissue distribution, Bone ([1]; 3 h after injection): 0.28 ± 0.11 %ID/g; Tissue distribution, Brain ([1]; 3 h after injection): 0.04 ± 0.00 %ID/g; Tissue distribution, Cecum ([1]; 3 h after injection): 0.50 ± 0.23 %ID/g; Tissue distribution, Colon ([1]; 3 h after injection): 0.95 ± 0.59 %ID/g; Tissue distribution, Heart ([1]; 3 h after injection): 0.43 ± 0.20 %ID/g; Tissue distribution, Kidney ([1]; 3 h after injection): 0.73 ± 0.15 %ID/g; Tissue distribution, Liver ([1]; 3 h after injection): 1.34 ± 0.47 %ID/g; Tissue distribution, Lung ([1]; 3 h after injection): 0.69 ± 0.28 %ID/g; Tissue distribution, Pancreas ([1]; 3 h after injection): 0.42 ± 0.28 %ID/g; Tissue distribution, Salivary glands ([1]; 3 h after injection): 0.96 ± 0.16 %ID/g; Tissue distribution, Small intestine ([1]; 3 h after injection): 5.33 ± 2.18 %ID/g; Tissue distribution, Spleen ([1]; 3 h after injection): 0.42 ± 0.14 %ID/g; Tissue distribution, Stomach ([1]; 3 h after injection): 8.08 ± 3.50 %ID/g; Tissue distribution, Testis ([1]; 3 h after injection): 0.31 ± 0.02 %ID/g; Tissue distribution, Thymus ([1]; 3 h after injection): 0.18 ± 0.06 %ID/g; Tissue distribution, Thyroid ([1]; 3 h after injection): 0.42 ± 0.20 %ID/g
COc1ccc(C[C@](C)(N)C(=O)O)cc1[211At] [^211At-AAMT-O-Me-L, (S)-2-amino-3-(3-(astato-^211At)-4-methoxyphenyl)-2-methylpropanic acid]	taken up more	7.10 ± 1.15 %ID/g	1.57 ± 0.10 %ID/g	1.33 ± 0.16 %ID/g	0.32 ± 0.02 %ID/g	0.85 ± 0.04 %ID/g	0.93 ± 0.13 %ID/g	2.01 ± 0.15 %ID/g	2.47 ± 0.24 %ID/g	1.11 ± 0.10 %ID/g	6.42 ± 1.52 %ID/g	1.52 ± 0.17 %ID/g	7.16 ± 1.54 %ID/g	1.82 ± 0.08 %ID/g	5.01 ± 1.42 %ID/g	13.65 ± 2.40 %ID/g	2.31 ± 0.04 %ID/g	2.03 ± 0.50 %ID/g	13.12 ± 1.72 %ID/g	0.10 ± 0.01 %ID/g	Time-dependent uptake (PANC-1 cells; collection 0.5, 1, 5 and 10 min after treatment): highest uptake; also recorded: significantly higher uptake than the seed compound; Tissue distribution, Blood ([1]; 3 h after injection): 1.17 ± 0.24 %ID/g; Tissue distribution, Bone ([1]; 3 h after injection): 0.53 ± 1.31 %ID/g; Tissue distribution, Brain ([1]; 3 h after injection): 0.10 ± 0.02 %ID/g; Tissue distribution, Cecum ([1]; 3 h after injection): 0.95 ± 0.11 %ID/g; Tissue distribution, Colon ([1]; 3 h after injection): 0.80 ± 0.12 %ID/g; Tissue distribution, Heart ([1]; 3 h after injection): 0.34 ± 0.02 %ID/g; Tissue distribution, Kidney ([1]; 3 h after injection): 1.11 ± 0.15 %ID/g; Tissue distribution, Liver ([1]; 3 h after injection): 2.57 ± 0.17 %ID/g; Tissue distribution, Lung ([1]; 3 h after injection): 1.34 ± 0.32 %ID/g; Tissue distribution, Pancreas ([1]; 3 h after injection): 0.19 ± 0.04 %ID/g; Tissue distribution, Salivary glands ([1]; 3 h after injection): 1.77 ± 0.19 %ID/g; Tissue distribution, Small intestine ([1]; 3 h after injection): 3.91 ± 0.20 %ID/g; Tissue distribution, Spleen ([1]; 3 h after injection): 0.80 ± 0.19 %ID/g; Tissue distribution, Stomach ([1]; 3 h after injection): 16.96 ± 1.89 %ID/g; Tissue distribution, Testis ([1]; 3 h after injection): 0.52 ± 0.06 %ID/g; Tissue distribution, Thymus ([1]; 3 h after injection): 0.14 ± 0.03 %ID/g; Tissue distribution, Thyroid ([1]; 3 h after injection, listed as L-Isomer): 0.65 ± 0.16 %ID/g
